Assay [1] addresses T1, CDK12 (nuclear staining in CAL-120 cells) (Homo sapiens, UniProt Q9NYV4).
T1 construct: endogenous in cells; host or cells: CAL-120 human breast cancer cells (DSMZ ACC 459)
As to the kind of experiment: CDK12 nuclear protein level: immunofluorescence/high content analysis (CAL-120). In kind it is cell-based. Particulars: for DC50: CAL-120 cells, 24 h, immunofluorescence, 50% reduction of nuclear CDK12 staining intensity, median, read-out: CDK12 degradation IF, DC50- [mol/l] (median); for (IC50 CDK12 high ATP) to (Degradation DC50 CDK12) ratio: ratio of IC50 CDK12 high ATP kinase assay to DC50 CDK12 degradation (IF, CAL-120). An outline of the steps:
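DC50 is the degrader concentration that halves nuclear CDK12 immunofluorescence relative to controls, measured by high-content imaging. CAL-120 cells were exposed to compound for 24 h at 37 °C before PFA fixation, and signal was normalized to DMSO and control wells.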

Assay [2] deals with CAL-120, human breast adenocarcinoma cells. Kind of assay: Proliferation assay CAL-120 (crystal violet, 4 days). The format is cell-based. To be noted: CAL-120 cells, median, read-out: Prolif-CAL-120, IC50-[mol/l] (median). An outline of the steps:
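Growth was measured by crystal violet staining after cells had been treated with compounds (0.01-10 µmol/L, 0.1% DMSO) for 4 days, beginning 24 h after seeding. Values were normalized to a zero-point plate and to untreated controls, and IC50 values were derived by a four-parameter fit.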

The target of a further assay is T2, CDK2/CycE (Homo sapiens, UniProt P24941).
T2 construct: purchased ProQinase GmbH (Freiburg, Germany); host or cells: insect cells (Sf9)
As to the kind of experiment: CDK2/CycE kinase assay (TR-FRET, 2 mM ATP). The format is biochemical. Particulars: 2 mM ATP (high ATP); median; read-out: CDK2/CyclinE, 2 mM ATP (high ATP), IC50 (median). Put shortly: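 Biotin-peptide phosphorylation (0.75 µM substrate, 2 mM ATP final, 25 min, 22 °C) by Sf9-expressed GST-CDK2/GST-CycE, after a 15-min compound pre-binding step. Inhibition scaled between enzyme-free (100%) and uninhibited (0%) wells.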

The record followed here is patent publication US20230117034A1, “PYRAZOLOTRIAZINES” (Bayer Aktiengesellschaft, priority 2019, published 2023).

pIC50: −log10 of the molar value. Read-outs that look alike come from different tables or passages of the source.

T1 sequence (Q9NYV4 whole entry): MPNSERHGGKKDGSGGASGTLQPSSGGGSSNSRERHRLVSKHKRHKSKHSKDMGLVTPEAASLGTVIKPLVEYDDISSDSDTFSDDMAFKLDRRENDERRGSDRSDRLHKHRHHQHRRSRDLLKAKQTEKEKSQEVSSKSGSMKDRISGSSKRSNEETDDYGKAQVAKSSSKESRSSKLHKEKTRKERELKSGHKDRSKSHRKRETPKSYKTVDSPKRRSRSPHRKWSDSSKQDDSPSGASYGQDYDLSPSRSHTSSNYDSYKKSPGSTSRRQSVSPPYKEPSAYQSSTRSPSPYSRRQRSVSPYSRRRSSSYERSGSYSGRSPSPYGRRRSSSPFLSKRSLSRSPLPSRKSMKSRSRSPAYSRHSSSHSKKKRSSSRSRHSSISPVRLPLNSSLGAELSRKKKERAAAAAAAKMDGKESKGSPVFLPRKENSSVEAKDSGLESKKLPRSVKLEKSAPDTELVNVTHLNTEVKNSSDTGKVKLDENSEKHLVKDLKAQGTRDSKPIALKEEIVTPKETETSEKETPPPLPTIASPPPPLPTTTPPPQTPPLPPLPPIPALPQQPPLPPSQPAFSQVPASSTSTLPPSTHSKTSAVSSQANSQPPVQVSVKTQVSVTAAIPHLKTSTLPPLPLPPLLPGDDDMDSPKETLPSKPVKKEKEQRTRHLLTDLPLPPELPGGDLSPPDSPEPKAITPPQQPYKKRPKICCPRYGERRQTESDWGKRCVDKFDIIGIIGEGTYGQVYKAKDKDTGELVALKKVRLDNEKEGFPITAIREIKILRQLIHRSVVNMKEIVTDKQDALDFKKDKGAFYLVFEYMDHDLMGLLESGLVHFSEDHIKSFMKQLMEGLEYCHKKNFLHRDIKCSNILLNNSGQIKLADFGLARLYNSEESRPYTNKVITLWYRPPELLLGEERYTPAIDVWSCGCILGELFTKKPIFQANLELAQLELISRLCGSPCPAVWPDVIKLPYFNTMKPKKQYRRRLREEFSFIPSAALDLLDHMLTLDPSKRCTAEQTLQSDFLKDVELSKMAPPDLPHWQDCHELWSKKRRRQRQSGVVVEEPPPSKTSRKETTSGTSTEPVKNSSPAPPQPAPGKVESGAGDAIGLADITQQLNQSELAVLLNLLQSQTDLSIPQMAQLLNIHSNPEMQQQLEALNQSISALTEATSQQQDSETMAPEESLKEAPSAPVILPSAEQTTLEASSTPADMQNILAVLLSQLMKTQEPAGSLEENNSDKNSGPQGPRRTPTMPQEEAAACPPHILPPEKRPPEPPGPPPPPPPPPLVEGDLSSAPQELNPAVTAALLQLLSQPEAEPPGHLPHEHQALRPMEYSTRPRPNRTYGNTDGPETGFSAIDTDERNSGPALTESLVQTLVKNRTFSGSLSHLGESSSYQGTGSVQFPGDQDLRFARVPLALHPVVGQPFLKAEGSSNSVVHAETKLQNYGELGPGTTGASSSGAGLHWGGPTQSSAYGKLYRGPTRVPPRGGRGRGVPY
T1 sequence (O75909 whole entry partner): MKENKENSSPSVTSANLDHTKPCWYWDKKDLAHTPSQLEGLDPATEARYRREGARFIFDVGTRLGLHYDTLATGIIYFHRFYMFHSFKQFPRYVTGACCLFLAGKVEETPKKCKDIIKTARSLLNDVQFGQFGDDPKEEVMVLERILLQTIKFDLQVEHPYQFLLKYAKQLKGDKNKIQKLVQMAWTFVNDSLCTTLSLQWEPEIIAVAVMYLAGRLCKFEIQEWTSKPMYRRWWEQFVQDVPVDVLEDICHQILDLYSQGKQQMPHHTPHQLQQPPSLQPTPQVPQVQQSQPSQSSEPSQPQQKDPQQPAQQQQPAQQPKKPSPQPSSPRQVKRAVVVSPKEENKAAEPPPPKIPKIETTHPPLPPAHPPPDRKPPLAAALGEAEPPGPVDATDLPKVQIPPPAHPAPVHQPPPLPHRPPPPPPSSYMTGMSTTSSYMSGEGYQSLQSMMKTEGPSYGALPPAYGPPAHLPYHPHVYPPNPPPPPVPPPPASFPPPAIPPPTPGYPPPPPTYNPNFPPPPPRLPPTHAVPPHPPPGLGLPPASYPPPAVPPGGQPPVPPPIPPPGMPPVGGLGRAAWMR

Take `N[C@H]1CCN(c2nc(NCc3nc4ccccc4[nH]3)n3ncc(Br)c3n2)C1` [Example 245, 2-[(3S)-3-aminopyrrolidin-1-yl]-N-[(1H-benzimidazol-2-yl)methyl]-8-bromopyrazolo[1,5-a][1,3,5]triazin-4-amine]: the DC50 in assay [1] came to 1.49 nM. The “(IC50 CDK12 high ATP) to (Degradation DC50 CDK12) ratio” value in assay [1] is over 10636. The pIC50 is 8.51 in assay [2] (Homo sapiens, CAL-120, 96 h) and 5.30 at CDK2/CycE.
On to `Brc1cnn2c(NCc3nc4ccccc4[nH]3)nc(N3CC4CCNC4C3)nc12` (centres unmarked) [Example 271, 2-(2,3,3a,4,6,6a-hexahydro-1H-pyrrolo[2,3-c]pyrrol-5-yl)-N-(1H-benzimidazol-2-ylmethyl)-8-bromo-pyrazolo[1,5-a][1,3,5]triazin-4-amine], for which, in assay [1], the DC50 turned out to be 18.3 nM and the “(IC50 CDK12 high ATP) to (Degradation DC50 CDK12) ratio” value is reported as over 1094. Besides, the pIC50 in assay [2] (Homo sapiens, CAL-120, 96 h) is 7.63. Also, on CDK2/CycE, the pIC50 was 5.00.
`N[C@H]1[C@@H]2C[C@H]1CN(c1nc(NCc3nc4ccccc4[nH]3)n3ncc(Br)c3n1)C2` [Example 288, 2-[(1R,5S,6r)-6-amino-3-azabicyclo[3.1.1]heptan-3-yl]-N-[(1H-benzimidazol-2-yl)methyl]-8-bromopyrazolo[1,5-a][1,3,5]triazin-4-amine]: in assay [1], the DC50 amounted to 1.16 nM and the “(IC50 CDK12 high ATP) to (Degradation DC50 CDK12) ratio” value was determined as 2920. For the same compound, the pIC50 in assay [2] (Homo sapiens, CAL-120, 96 h) was 8.74. On CDK2/CycE, the pIC50 was 5.58.
For `Brc1cnn2c(NCc3nc4ccccc4[nH]3)nc(N3C[C@@H]4CN[C@@H]4C3)nc12.O=C(O)C(F)(F)F` [Example 267, trifluoroacetic acid-N-[(1H-benzimidazol-2-yl)methyl]-8-bromo-2-[(1S,5S)-3,6-diazabicyclo[3.2.0]heptan-3-yl]pyrazolo[1,5-a][1,3,5]triazin-4-amine (1/1)], in assay [1], the DC50 was 31.9 nM and the “(IC50 CDK12 high ATP) to (Degradation DC50 CDK12) ratio” value is over 627. Besides, in assay [2] (Homo sapiens, CAL-120, 96 h), the pIC50 was 7.16. Besides, the pIC50 at CDK2/CycE is 4.79.
For `C[C@@H]1CN(c2nc(NCc3nc4ccccc4[nH]3)n3ncc(C4CC4)c3n2)C[C@H](C)N1` [Example 248, N-[(1H-benzimidazol-2-yl)methyl]-8-cyclopropyl-2-[(3R,5S)-3,5-dimethylpiperazin-1-yl]pyrazolo[1,5-a][1,3,5]triazin-4-amine], in assay [1], the DC50 came out at 0.946 nM. The “(IC50 CDK12 high ATP) to (Degradation DC50 CDK12) ratio” value in assay [1] stood at 9730. The pIC50 in assay [2] (Homo sapiens, CAL-120, 96 h) was 8.50; on CDK2/CycE it was under 4.70.
On to `Fc1ccc2[nH]c(CNc3nc(N4CCOCC4)nc4c(C5CCOCC5)cnn34)nc2c1F` [Example 276, N-[(4,5-difluoro-1H-benzimidazol-2-yl)methyl]-2-(morpholin-4-yl)-8-(oxan-4-yl)pyrazolo[1,5-a][1,3,5]triazin-4-amine], for which, in assay [1], the DC50 worked out at 38.8 nM and the “(IC50 CDK12 high ATP) to (Degradation DC50 CDK12) ratio” value is over 516. The pIC50 in assay [2] (Homo sapiens, CAL-120, 96 h) was 6.78. Further, the pIC50 on CDK2/CycE is under 4.70.
Turning to `Brc1cnn2c(NCc3nc4ccccc4[nH]3)nc(NCC3CC3)nc12` [Example 284, N^4-[(1H-benzimidazol-2-yl)methyl]-8-bromo-N^2-(cyclopropylmethyl)pyrazolo[1,5-a][1,3,5]triazine-2,4-diamine], in assay [1], the DC50 was found to be 48.5 nM and the “(IC50 CDK12 high ATP) to (Degradation DC50 CDK12) ratio” value is 113. The pIC50 in assay [2] (Homo sapiens, CAL-120, 96 h) was 7.13. Further, the pIC50 on CDK2/CycE was 5.70.
For `CC1CN(C)CCN1c1nc(NCc2nc3ccccc3[nH]2)n2ncc(Br)c2n1` (single isomer, unassigned; enantiomer 2) [Example 261, N-(1H-benzimidazol-2-ylmethyl)-8-bromo-2-[(2R or S)-2,4-dimethylpiperazin-1-yl]pyrazolo[1,5-a][1,3,5]triazin-4-amine (Enantiomer 2)], in assay [1], the DC50 is 19.9 nM and the “(IC50 CDK12 high ATP) to (Degradation DC50 CDK12) ratio” value was over 942. The pIC50 in assay [2] was 7.41. Besides, on CDK2/CycE, the pIC50 is 5.14.
As for `OCC1CN(c2nc(NCc3nc4ccccc4[nH]3)n3ncc(Br)c3n2)C1` [Example 304, [1-(4-{[(1H-benzimidazol-2-yl)methyl]amino}-8-bromopyrazolo[1,5-a][1,3,5]triazin-2-yl)azetidin-3-yl]methanol], the DC50 in assay [1] was determined as 74.6 nM. Also, the “(IC50 CDK12 high ATP) to (Degradation DC50 CDK12) ratio” value in assay [1] is 167. The pIC50 is 7.06 in assay [2] (Homo sapiens, CAL-120, 96 h) and 5.07 at CDK2/CycE.
Consider `Brc1cnn2c(NCc3nc4cccnc4[nH]3)nc(N3CCNCC3)nc12.O=CO` [Example 19, 8-bromo-N-[(3H-imidazo[4,5-b]pyridin-2-yl)methyl]-2-(piperazin-1-yl)pyrazolo[1,5-a][1,3,5]triazin-4-amine formic acid salt], for which, in assay [1], the DC50 came to 10.9 nM and the “(IC50 CDK12 high ATP) to (Degradation DC50 CDK12) ratio” value is 1056. Moreover, at CDK2/CycE, the pIC50 is 4.94.
`Brc1cnn2c(NCc3nc4ccccc4[nH]3)nc(N3CCC4(CCN4)CC3)nc12` [Example 291, N-[(1H-benzimidazol-2-yl)methyl]-8-bromo-2-(1,7-diazaspiro[3.5]nonan-7-yl)pyrazolo[1,5-a][1,3,5]triazin-4-amine]: in assay [1], the DC50 is 19.2 nM and the “(IC50 CDK12 high ATP) to (Degradation DC50 CDK12) ratio” value was 554. In assay [2] (Homo sapiens, CAL-120, 96 h), the pIC50 is 7.73. Also, on CDK2/CycE, the pIC50 was 5.39.
Consider `Brc1cnn2c(NCc3nc4ccccc4[nH]3)nc(N3C[C@H]4CN[C@H]4C3)nc12.O=C(O)C(F)(F)F` [Example 255, trifluoroacetic acid-N-[(1H-benzimidazol-2-yl)methyl]-8-bromo-2-[(1R,5R)-3,6-diazabicyclo[3.2.0]heptan-3-yl]pyrazolo[1,5-a][1,3,5]triazin-4-amine (1/1)], for which, in assay [1], the DC50 is 19.2 nM and the “(IC50 CDK12 high ATP) to (Degradation DC50 CDK12) ratio” value is given as over 1044. In addition, the pIC50 in assay [2] (Homo sapiens, CAL-120, 96 h) is 7.48. Besides, the pIC50 on CDK2/CycE was under 4.70.
As to `CC(C)CNc1nc(NCc2nc3ccccc3[nH]2)n2ncc(Br)c2n1` [Example 285, N^4-[(1H-benzimidazol-2-yl)methyl]-8-bromo-N^2-(2-methylpropyl)pyrazolo[1,5-a][1,3,5]triazine-2,4-diamine], in assay [1], the DC50 turned out to be 32.3 nM and the “(IC50 CDK12 high ATP) to (Degradation DC50 CDK12) ratio” value is 200. Further, the pIC50 in assay [2] (Homo sapiens, CAL-120, 96 h) was 7.10. Further, the pIC50 on CDK2/CycE is 5.59.
As to `Cc1cc2nc(CNc3nc(N4CCN(C)CC4)nc4c(C5CC5)cnn34)[nH]c2cc1C` [Example 312, 8-cyclopropyl-N-[(5,6-dimethyl-1H-benzimidazol-2-yl)methyl]-2-(4-methylpiperazin-1-yl)pyrazolo[1,5-a][1,3,5]triazin-4-amine], in assay [1], the DC50 is 3.9 nM and the “(IC50 CDK12 high ATP) to (Degradation DC50 CDK12) ratio” value came out at 2616. In assay [2] (Homo sapiens, CAL-120, 96 h), the pIC50 was 8.63. The pIC50 at CDK2/CycE was under 4.90.
For `CN(CC(C)(C)O)c1nc(NCc2nc3cc(Cl)c(Cl)cc3[nH]2)n2ncc(C3CC3)c2n1` [Example 306, 1-[(8-cyclopropyl-4-{[(5,6-dichloro-1H-benzimidazol-2-yl)methyl]amino}pyrazolo[1,5-a][1,3,5]triazin-2-yl)(methyl)amino]-2-methylpropan-2-ol], in assay [1], the DC50 was 12.7 nM and the “(IC50 CDK12 high ATP) to (Degradation DC50 CDK12) ratio” value turned out to be 146. Further, the pIC50 in assay [2] (Homo sapiens, CAL-120, 96 h) is 8.14. Also, the pIC50 on CDK2/CycE was under 4.70.
Consider `Brc1cnn2c(NCc3ncc(-c4ccccc4)[nH]3)nc(N3CCOCC3)nc12` [Example 23, 8-bromo-2-(morpholin-4-yl)-N-[(5-phenyl-1H-imidazol-2-yl)methyl]pyrazolo[1,5-a][1,3,5]triazin-4-amine], for which, in assay [1], the DC50 turned out to be 3.45 nM and the “(IC50 CDK12 high ATP) to (Degradation DC50 CDK12) ratio” value is recorded as 452. The pIC50 on CDK2/CycE was 5.85.
Regarding `CN1CCN(c2nc(NCc3nc4c(F)cccc4[nH]3)n3ncc(C(F)(F)F)c3n2)CC1` [Example 293, N-[(4-fluoro-1H-benzimidazol-2-yl)methyl]-2-(4-methylpiperazin-1-yl)-8-(trifluoromethyl)pyrazolo[1,5-a][1,3,5]triazin-4-amine], in assay [1], the DC50 worked out at 1.71 nM and the “(IC50 CDK12 high ATP) to (Degradation DC50 CDK12) ratio” value is recorded as 3446. For the same compound, in assay [2] (Homo sapiens, CAL-120, 96 h), the pIC50 was 8.05.
Take `Fc1ccc2[nH]c(CNc3nc(N4CCOCC4)nc4c(C(F)(F)F)cnn34)nc2c1` [Example 273, N-[(5-fluoro-1H-benzimidazol-2-yl)methyl]-2-(morpholin-4-yl)-8-(trifluoromethyl)pyrazolo[1,5-a][1,3,5]triazin-4-amine]: in assay [1], the DC50 is 1.44 nM and the “(IC50 CDK12 high ATP) to (Degradation DC50 CDK12) ratio” value turned out to be 512. Also, the pIC50 in assay [2] (Homo sapiens, CAL-120, 96 h) is 8.35.
For `Brc1cnn2c(NCc3nc4ccncc4[nH]3)nc(N3CCOCC3)nc12` [Example 22, 8-bromo-N-[(3H-imidazo[4,5-c]pyridin-2-yl)methyl]-2-(morpholin-4-yl)pyrazolo[1,5-a][1,3,5]triazin-4-amine], in assay [1], the DC50 is 99 nM and the “(IC50 CDK12 high ATP) to (Degradation DC50 CDK12) ratio” value was found to be 40. The pIC50 at CDK2/CycE is 4.81.
